According to patent publication US4065354A, “Lysozyme conjugates for enzyme immunoassays” (priority 1975, dated 1977):

Columns and labels:
morphine antibodies [1] = test: homogeneous enzyme immunoassay with morphine conjugate to lysozyme, cross-reactivity
methadone antibody = test: methadone lysozyme conjugate enzyme immunoassay (sensitivity, cross-reactivity); settings: relative to methadone at 0.5μg/ml; ratio of concentrations giving the same optical density reading
amphetamine antibody = test: amphetamine lysozyme conjugate enzyme immunoassay, cross-reactivity; type: binding; settings: related to 1μg/ml amphetamine; 50μl of urine
Description: The next drug to be considered is amphetamine. Again, the same procedure is employed for lysozyme as for the prior assays, except that 50μl of urine is employed. The relative reactivity is related to 1μg/ml amphetamine.

thyroxine antibodies = test: activity of thyroxine-lysozyme conjugate (Example 17), inhibition by antibody, return by thyroxine; type: biochemical
morphine antibodies [2] = test: inhibition of Example 2 morphine-lysozyme conjugate by antibody and recovery by morphine; type: biochemical
[3] = compound concentration 0.3 μg/ml
[4] = compound concentration 300 μg/ml

COc1ccc2c3c1O[C@H]1[C@@H](O)C=C[C@H]4[C@@H](C2)N(C)CC[C@@]341 [Codeine]
Percent max. rate (morphine antibodies [1]; [3]): 7% | Percent max. rate (morphine antibodies [1]; compound concentration 3 μg/ml): 90%

CC(CN1c2ccccc2Sc2ccccc21)N(C)C (stereo not drawn) [Phenergan]
Relative Reactivity (methadone antibody): 0.0125

CC(N)Cc1ccc(O)cc1 (stereo not drawn) [p-Hydroxyamphetamine]
Relative Reactivity (amphetamine antibody): 0.022

CN(C)CCCN1c2ccccc2Sc2ccc(Cl)cc21 [Chlorpromazine]
Relative Reactivity (methadone antibody): 0.011

NCCc1ccccc1 [Phenethylamine]
Relative Reactivity (amphetamine antibody): 0.2

CNC(C)CC1CCCC1 (stereo not drawn) [Cyclopentamine]
Relative Reactivity (amphetamine antibody): 0.33

CC(C)=CCN1CCC2(C)c3cc(O)ccc3CC1C2C (stereo not drawn) [Pentazocine]
Percent max. rate (morphine antibodies [1]; [4]): 3%

CCC(=O)O[C@](Cc1ccccc1)(c1ccccc1)[C@H](C)CN(C)C [Dextropropoxyphene]
Relative Reactivity (methadone antibody): 0.00089

Hydromorphine
Percent max. rate (morphine antibodies [1]; [3]): 6% | Percent max. rate (morphine antibodies [1]; compound concentration 3 μg/ml): 55%

CCC(=O)O[C@](Cc1ccccc1)(c1ccccc1)[C@H](C)CN(C)C [Darvon]
Percent max. rate (morphine antibodies [1]; [4]): 4%

CN1CC[C@]23c4c5ccc(O)c4O[C@H]2[C@@H](O)C=C[C@H]3[C@H]1C5 [Morphine]
Percent max. rate (morphine antibodies [1]; [3]): 5% | Percent max. rate (morphine antibodies [1]; compound concentration 3 μg/ml): 67%

17: thyroxine methyl ester diglycolic acid derivative conjugated to lysozyme [Example 17]
inhibition by thyroxine antibodies (thyroxine antibodies): could be inhibited by thyroxine antibodies | activity after addition of thyroxine (thyroxine antibodies; antibody-inhibited conjugate): activity returned by the addition of thyroxine | enzyme activity of the conjugate (thyroxine antibodies; product after dialysis and centrifugation): active

CNC(C)CC1CCCCC1 (stereo not drawn) [Propylhexedrine]
Relative Reactivity (amphetamine antibody): 0.05

COC(=O)[C@H]1[C@@H](OC(=O)c2ccccc2)C[C@@H]2CC[C@H]1N2C [Cocaine]
Percent max. rate (morphine antibodies [1]; [4]): 2%

CC(COc1ccccc1)NC(C)C(O)c1ccc(O)cc1 (stereo not drawn) [Isoxsuprine]
Relative Reactivity (amphetamine antibody): 0.2

CN(C)CCCN1c2ccccc2Sc2ccc(Cl)cc21 [Thorazine]
Percent max. rate (morphine antibodies [1]; compound concentration 35 μg/ml (9.9 × 10^-5 M)): 6%

CC(N)Cc1ccccc1 (stereo not drawn) [Amphetamine]
Relative Reactivity (amphetamine antibody): 1

CN[C@@H](C)[C@H](O)c1ccccc1 [Ephedrine]
Relative Reactivity (amphetamine antibody): 0.22

CN[C@@H](C)Cc1ccccc1 [Methamphetamine]
Relative Reactivity (amphetamine antibody): 1.1

2: 0^3 -methoxyimidoylmethylmorphine conjugated to lysozyme [Example 2]
recovery of enzyme activity upon addition of aqueous morphine (morphine antibodies [2]; antibody-inhibited conjugate): full recovery of activity | inhibition of conjugate enzyme activity by morphine antibodies (morphine antibodies [2]; dialysate of Example 2): could be inhibited by morphine antibodies

CCC1(c2ccccc2)C(=O)NC(=O)NC1=O [Phenobarbital]
Percent max. rate (morphine antibodies [1]; [4]): 0%

CC(C)(N)Cc1ccccc1 [phentermine]
Relative Reactivity (amphetamine antibody): 0.62

Morphine glucuronide
Percent max. rate (morphine antibodies [1]; [3]): 4% | Percent max. rate (morphine antibodies [1]; compound concentration 10 μg/ml (2.1 × 10^-5 M)): 77%

CC(CCc1ccccc1)NC(C)C(O)c1ccc(O)cc1 (stereo not drawn) [Nylidrin]
Relative Reactivity (amphetamine antibody): 0.27

CNC(C)(C)Cc1ccccc1 [Mephentermine]
Relative Reactivity (amphetamine antibody): 0.62

CCC(=O)C(CC(C)N(C)C)(c1ccccc1)c1ccccc1 (stereo not drawn) [Methadone]
Percent max. rate (morphine antibodies [1]; compound concentration 30 μg/ml (8.7 × 10^-5 M)): 1% | Relative Reactivity (methadone antibody): 1

CC(N)C(O)c1ccccc1 (stereo not drawn) [Phenylpropanolamine]
Relative Reactivity (amphetamine antibody): 0.33

COc1ccc2c(c1)[C@]13CCCC[C@@H]1[C@H](C2)N(C)CC3 [Dextromethorphan]
Relative Reactivity (methadone antibody): 0.0042
